Data published in patent publication US9623073B2, “Learning motivation improvers” (SUNTORY HOLDINGS LIMITED, priority 2009, dated 2017).
Where two headings read alike, the source gives them in different places.

How the values were obtained:
[1] = target: T1, human serotonin transporter expressed in CHO cells (Homo sapiens, UniProt P31645); experiment: Inhibitory activity on serotonin transporter binding (3H-imipramine)
T1 construct: expressed in transfected cells; host or cells: CHO cells
Experimental: As used herein, the term “SSRI antidepressant” is intended to mean an agent that selectively binds to the serotonin transporter and inhibits the reuptake of serotonin through this serotonin transporter. Inhibitory activity on serotonin transporter binding may be measured, for example, as described in Eur. J. Pharmacol., 368: 277-283, 1999. Namely, it is measured by determining whether ^3H-labeled imipramine binds to the human serotonin transporter expressed in CHO cells.
(§1) Various cyclic dipeptides were measured for their inhibitory activity on serotonin transporter binding and norepinephrine transporter binding, as described in the prior documents mentioned above (Eur J Pharmacol, 368, 277-283, 1999 for inhibitory activity on serotonin transporter binding; and Nature, 350, 350-354, 1991 for inhibitory activity on noradrenaline transporter binding). Compound C was synthesized by Peptide Institute, Inc., Japan, and the other cyclic dipeptides were purchased from Bachem AG (Bubendorf, Switzerland). The results were expressed as IC50 values, i.e., the concentrations of the various cyclic peptides required for 50% inhibition of binding to each transporter (Table 1).

[2] = tested on: C57BL/6 mice; experiment: Morris water maze (MWM) after open space swimming (OSS), learning motivation; assay type: in vivo; conditions: for improving effect on learning motivation over control group (OSS-Vehicle): 20 mg/kg, MWM, FIG. 2
Experimental: On the other hand, the Morris water maze test has been reported as a method for measuring spatial memory and learning (Learn. Motiv. 12, 239-260 (1981)). In this test, the time required to reach an escape platform (escape latency) is used as a parameter for evaluation, because mice will remember their surrounding scenery and swim in a pool filled with water to try to find and reach the escape platform, which is a goal, with their memory as a guide. Since mice to be used in this test are treated to reduce their motivation by being allowed to swim in a pool having no escape platform before the Morris water maze test, a reduction in the time required to reach the escape platform can be regarded as an improvement in learning motivation.
Compound A was evaluated for its antidepressive effect and enhancing effect on learning motivation by the method known in the art, i.e., Morris Water Maze (MWM).
First, water which had been colored black with Indian ink was filled into a cylindrical tank of 90 cm diameter and 35 cm height to give a water depth of 20 cm, and the water temperature was set to 22±1° C. To this tank, C57BL/6 mice (male, 9 weeks of age) were each transferred and allowed to experience open space swimming (OSS). Upon OSS, mice will cause changes in their behavior and enter a state corresponding to depression. After repeating OSS for 5 days, the mice were divided into 7 groups.
Next, in the above cylindrical tank of 90 cm diameter and 35 cm height, an escape platform of 10 cm diameter was placed at a water depth of 0.5 cm. The above 7 groups of mice were each orally administered with compound A (Bachem AG (Bubendorf, Switzerland)) or with a comparative drug, fluvoxamine maleate, in the form of a suspension in physiological saline. After 60 minutes, each mouse was transferred to the tank provided with the escape platform, and measured for the time required to find out the invisible escape platform placed below the water surface (i.e., escape latency) to evaluate the spatial memory and learning ability of each mouse (MWM). As control mice, animals experiencing no OSS were administered with physiological saline and subjected to MWM. MWM was repeated five times a day for 10 days.
In the same manner as shown in Example 2, mice were administered with 20 mg/kg compound A and then subjected to the MWM test. As a control, a linear dipeptide (Phe-Phe) was administered at 20 mg/kg, followed by the MWM test.
In the same manner as shown in Example 2, another group receiving 0.002 mg/kg administration was prepared and subjected to the same MWM test.

[3] = tested on: mice; experiment: Single-dose (acute) toxicity study; assay type: in vivo; conditions: administered at 2 g/kg
[4] = tested on: rats; experiment: 28-day repeated dose toxicity study; assay type: in vivo
[5] = Genetic toxicity studies (Ames test, chromosomal aberration test, mouse micronucleus test)
[6] = target: T2, human norepinephrine transporter expressed in CHO cells (Homo sapiens, UniProt P23975); experiment: Inhibitory activity on norepinephrine transporter binding (3H-nisoxetine); conditions: for IC50: concentration required for 50% inhibition of binding
T2 construct: expressed in transfected cells; host or cells: CHO cells
T2 sequence (P23975 whole entry): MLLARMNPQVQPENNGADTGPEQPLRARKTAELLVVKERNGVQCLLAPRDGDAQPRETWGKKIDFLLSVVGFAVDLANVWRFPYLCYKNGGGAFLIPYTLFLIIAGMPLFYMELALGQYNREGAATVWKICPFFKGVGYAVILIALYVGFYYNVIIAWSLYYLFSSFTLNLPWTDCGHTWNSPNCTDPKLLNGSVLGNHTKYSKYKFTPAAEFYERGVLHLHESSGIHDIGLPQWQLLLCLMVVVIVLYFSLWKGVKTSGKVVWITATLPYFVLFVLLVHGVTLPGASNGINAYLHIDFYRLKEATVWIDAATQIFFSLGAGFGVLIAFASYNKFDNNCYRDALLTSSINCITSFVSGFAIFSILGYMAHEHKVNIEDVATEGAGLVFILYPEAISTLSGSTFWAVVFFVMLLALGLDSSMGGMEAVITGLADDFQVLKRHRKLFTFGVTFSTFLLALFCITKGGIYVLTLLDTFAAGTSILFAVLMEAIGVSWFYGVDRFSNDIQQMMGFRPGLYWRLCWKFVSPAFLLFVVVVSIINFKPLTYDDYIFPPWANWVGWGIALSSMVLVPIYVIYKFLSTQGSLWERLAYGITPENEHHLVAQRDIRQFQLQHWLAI
Experimental: The term “SNRI antidepressant” is intended to mean an agent that binds to both serotonin and norepinephrine transporters, and inhibits the reuptake of serotonin and norepinephrine. Inhibitory activity on norepinephrine transporter binding may be measured, for example, as described in Nature, 350: 350-354, 1991. Namely, it is measured by determining whether ^3H-labeled nisoxetine binds to the human norepinephrine transporter expressed in CHO cells.
as §1

[7] = concentration required for 50% inhibition of binding, read-out: IC50, serotonin transporter (converted)

T1 sequence (P31645 whole entry): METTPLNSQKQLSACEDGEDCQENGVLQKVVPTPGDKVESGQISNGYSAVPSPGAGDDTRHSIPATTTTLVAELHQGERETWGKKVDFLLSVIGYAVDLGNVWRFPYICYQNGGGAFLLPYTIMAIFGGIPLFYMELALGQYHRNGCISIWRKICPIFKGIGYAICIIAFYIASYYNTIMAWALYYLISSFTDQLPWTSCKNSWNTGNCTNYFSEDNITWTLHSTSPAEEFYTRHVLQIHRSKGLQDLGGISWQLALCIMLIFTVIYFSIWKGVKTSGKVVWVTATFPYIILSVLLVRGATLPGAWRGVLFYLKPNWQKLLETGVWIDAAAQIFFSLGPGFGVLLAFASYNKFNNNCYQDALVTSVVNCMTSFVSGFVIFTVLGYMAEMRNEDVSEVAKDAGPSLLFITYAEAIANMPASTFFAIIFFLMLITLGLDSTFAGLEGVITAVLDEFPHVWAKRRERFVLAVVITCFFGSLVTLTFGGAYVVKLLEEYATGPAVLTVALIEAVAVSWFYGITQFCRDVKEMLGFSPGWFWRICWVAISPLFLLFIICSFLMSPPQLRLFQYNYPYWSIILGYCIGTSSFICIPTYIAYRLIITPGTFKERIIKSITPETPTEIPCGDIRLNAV

| Compound | inhibitory activity on serotonin transporter binding (in words) [1] | IC50 [1, 7] | inhibitory activity on norepinephrine transporter binding (in words) [6] | IC50 [6] | other results |
| --- | --- | --- | --- | --- | --- |
| O=C1N[C@@H](Cc2ccccc2)C(=O)N[C@H]1Cc1ccccc1 [Compound A, 2,5-piperazinedione,3,6-bis(phenylmethyl)-,(3S,6S)] | have inhibitory activity on serotonin transporter binding | 8.15 µM | – | – | IC50 ([1]; read-out: concentration (IC50) required for 50% inhibition of serotonin transporter binding): 8.1 µM; reduction of escape latency compared to control group (OSS-Saline) ([2]; 0.02 mg/kg oral, at 10 days of MWM): around 20%; time required to reach the escape platform versus fluvoxamine maleate group ([2]; 20 mg/kg oral, at 10 days of MWM): substantially the same; improving effect on learning motivation over control group (OSS-Vehicle) [2]: significant improving effect on learning motivation; human dose predicted from the effective dose in mice ([2]; 1/10 of the mouse dose 0.02 mg/kg): 0.1 mg/human (50 kg); escape latency, dose dependence ([2]; OSS mice, oral, MWM for 10 days, FIG. 1): dose-dependent reduction in the escape latency; dose at which the effect is exerted ([2]; mice, time to reach the escape platform at 7 days of MWM, FIG. 3): ≥ 0.02 mg/kg; toxicity in single-dose (acute) toxicity study [3]: no toxicity; maximum no-effect dose [4]: ≥ 2 g/kg/day; mutagenicity [5]: no mutagenicity |
| O=C1N[C@@H](Cc2c[nH]cn2)C(=O)N2CCC[C@@H]12 [Compound B, pyrrolo[1,2-a]pyrazine-1,4-dione,hexahydro-3-(1H-imidazol-4-ylmethyl)-,(3S,8aS)] | have inhibitory activity on serotonin transporter binding | 2480 µM | – | – | – |
| O=C1N[C@@H](Cc2c[nH]c3ccccc23)C(=O)N2CCC[C@@H]12 [Compound C, pyrrolo[1,2-a]pyrazine-1,4-dione,hexahydro-3-(1H-indol-3-ylmethyl)-,(3S,8aS)] | have inhibitory activity on serotonin transporter binding | 3740 µM | – | – | – |
| O=C1N[C@@H](Cc2c[nH]c3ccccc23)C(=O)N[C@H]1Cc1c[nH]c2ccccc12 [Compound D, 2,5-piperazinedione,3,6-bis(1H-indol-3-ylmethyl)-,(3S,6S)] | – | – | have inhibitory activity on norepinephrine transporter binding | 148 µM | – |
| CC(C)C[C@@H]1NC(=O)[C@@H]2CCCN2C1=O [Compound E, pyrrolo[1,2-a]pyrazine-1,4-dione,hexahydro-3-(2-methylpropyl)-,(3S,8aS)] | – | – | have inhibitory activity on norepinephrine transporter binding | 2000 µM | – |
| CC(C)[C@@H]1NC(=O)[C@@H]2CCCN2C1=O [Compound F, pyrrolo[1,2-a]pyrazine-1,4-dione,hexahydro-3-(1-methylethyl)-,(3S,8aS)] | – | – | have inhibitory activity on norepinephrine transporter binding | 10700 µM | – |
| Phe-Phe [reference compound] | – | – | – | – | improving effect on learning motivation over control group (OSS-Vehicle) [2]: not confirmed to have a significant effect |
